Assay results: US4791215A, “Derivatives of glutamic acid and aspartic acid” (priority 1984, dated 1988)

Assays:
morphine analgesia = experiment: Increase in analgesia of morphine, Tail Flick Test (Experiment 1); format: in vivo, rats; conditions: for percentage variation of latency of pain sensation / M (10-90) ± SE, mean percentage variation of latency: compound 10 mg/kg i.p. + morphine 2 mg/kg; for M (10-90) ± SE, mean percentage variation of latency: mean 10-90 min; for Power ratio with respect to morphine alone: rat, in vivo
Experimental: Experiment No: 1 Increase in analgesia of analgesic-narcotic drugs in rats by the Tail Flick Test
The method is that described by Harris et al. (J. Pharmacol. Exp. Ther. 143 (1964) 141-148).
Male rats are used having a weight of about 150-200 g which have not fasted. A point on the tail is chosen and irradiated by a heat source (75° C.) and the time (in seconds) for which the animal remains without moving its tail is measured.
A maximum period of time of 8 seconds under the heat source is chosen, after which the animal is, in any case, removed to avoid tissue damage. The measurement is effected before (controls) and after treatment with the drugs.
The percentage variation is calculated for each individual animal by the following formula: [formula] The measurements were carried out 10, 20, 30, 45, 60 and 90 minutes after treatment with the analgesics.

[1] = test system: CCK-8 induced contraction of guinea pig gall bladder; experiment: Anti-CCK activity on gall bladder strips in vitro; conditions: CCK-8 10 ng/ml
Experimental: ANTI-CCK ACTIVITY ON GUINEA PIG GALL BALDDERS IN VITRO
A longitudinal strip of guinea pig gall bladder was placed in a bath of isolated members in the presence of Krebs at a temperature of 32° C. with continuous oxygenation with an oxygen-CO2 mixture (95-5V/V).
The isometric contractions were detected by means of a force transducer and recorded.
The gall bladder was made to contract with the use of a 10 ng/ml concentration of CCK-8; the antagonistic activity of the compounds of the invention on the contracting effect of the CCK was determined with the use of different concentrations and the ED 50 value, that is the concentration in μg/ml of a compound which could antagonise 50% of the contracting effect of the CCK, was determined.

CCCN(CCC)C(=O)C(CC(=O)O)NC(=O)c1ccccc1Br (stereo not drawn) [Compound C-16]
percentage variation of latency of pain sensation (morphine analgesia; 10'): 43.2 ± 11.0%
percentage variation of latency of pain sensation (morphine analgesia; 20'): 88.7 ± 10.0%
percentage variation of latency of pain sensation (morphine analgesia; 30'): 54.8 ± 5.8%
percentage variation of latency of pain sensation (morphine analgesia; 45'): 47.3%
percentage variation of latency of pain sensation (morphine analgesia; 60'): 26.1 ± 11.5%
percentage variation of latency of pain sensation (morphine analgesia; 90'): 22.2 ± 16.7%
M (10-90) ± SE, mean percentage variation of latency (morphine analgesia): 47.0 ± 24.0%
Power ratio with respect to morphine alone (morphine analgesia): 1.58
ED50 (concentration antagonising 50% of contracting effect of CCK-8) [1]: > 200 µg/mL

CCCN(CCC)C(=O)C(CCC(=O)O)NC(=O)c1ccccc1Cl (stereo not drawn) [Compound C-1]
percentage variation of latency of pain sensation (morphine analgesia; 10'): 65.3 ± 18.0%
percentage variation of latency of pain sensation (morphine analgesia; 20'): 67.2%
percentage variation of latency of pain sensation (morphine analgesia; 30'): 66.3 ± 14.0%
percentage variation of latency of pain sensation (morphine analgesia; 45'): 82.7 ± 11.0%
percentage variation of latency of pain sensation (morphine analgesia; 60'): 68.8 ± 17.0%
percentage variation of latency of pain sensation (morphine analgesia; 90'): 59.3 ± 25.0%
M (10-90) ± SE, mean percentage variation of latency (morphine analgesia): 68.2%
Power ratio with respect to morphine alone (morphine analgesia): 2.29
ED50 (concentration antagonising 50% of contracting effect of CCK-8) [1]: > 200 µg/mL

CCCN(CCC)C(=O)C(CCC(=O)O)NC(=O)c1ccc(Br)cc1 (stereo not drawn) [Compound C-15]
percentage variation of latency of pain sensation (morphine analgesia; 10'): 59.8 ± 14.0%
percentage variation of latency of pain sensation (morphine analgesia; 20'): 84.2 ± 9.6%
percentage variation of latency of pain sensation (morphine analgesia; 30'): 78.3 ± 13.5%
percentage variation of latency of pain sensation (morphine analgesia; 45'): 88.7 ± 8.5%
percentage variation of latency of pain sensation (morphine analgesia; 60'): 82.5 ± 12.7%
percentage variation of latency of pain sensation (morphine analgesia; 90'): 54.5 ± 14.7%
M (10-90) ± SE, mean percentage variation of latency (morphine analgesia): 74.7%
Power ratio with respect to morphine alone (morphine analgesia): 2.51
ED50 (concentration antagonising 50% of contracting effect of CCK-8) [1]: > 200 µg/mL

CCCN(CCC)C(=O)C(CCC(=O)O)NC(=O)c1ccc(Cl)cc1 (stereo not drawn) [Compound C-3]
percentage variation of latency of pain sensation (morphine analgesia; 10'): 44.4%
percentage variation of latency of pain sensation (morphine analgesia; 20'): 83.7 ± 16.3%
percentage variation of latency of pain sensation (morphine analgesia; 30'): 77.8 ± 17.1%
percentage variation of latency of pain sensation (morphine analgesia; 45'): 46.4 ± 24.5%
percentage variation of latency of pain sensation (morphine analgesia; 60'): 73.6 ± 17.7%
percentage variation of latency of pain sensation (morphine analgesia; 90'): 45.8 ± 22.8%
M (10-90) ± SE, mean percentage variation of latency (morphine analgesia): 61.9 ± 18.2%
Power ratio with respect to morphine alone (morphine analgesia): 2.10
ED50 (concentration antagonising 50% of contracting effect of CCK-8) [1]: 34.4 µg/mL

CCCN(CCC)C(=O)C(CC(=O)O)NC(=O)c1cccc(C#N)c1 (stereo not drawn) [Compound C-22]
percentage variation of latency of pain sensation (morphine analgesia; 10'): 82.7 ± 9.4%
percentage variation of latency of pain sensation (morphine analgesia; 20'): 67.6 ± 18.0%
percentage variation of latency of pain sensation (morphine analgesia; 30'): 88.4 ± 9.3%
percentage variation of latency of pain sensation (morphine analgesia; 45'): 83.3%
percentage variation of latency of pain sensation (morphine analgesia; 60'): 93.6 ± 6.4%
percentage variation of latency of pain sensation (morphine analgesia; 90'): 53.8 ± 14.9%
M (10-90) ± SE, mean percentage variation of latency (morphine analgesia): 78.2 ± 15.0%
Power ratio with respect to morphine alone (morphine analgesia): 2.62
ED50 (concentration antagonising 50% of contracting effect of CCK-8) [1]: > 200 µg/mL

CCCN(CCC)C(=O)C(CCC(=O)O)NC(=O)c1ccc(C)cc1C (stereo not drawn) [Compound C-32]
percentage variation of latency of pain sensation (morphine analgesia; 10'): 21.8 ± 5%
percentage variation of latency of pain sensation (morphine analgesia; 20'): 58.6 ± 17%
percentage variation of latency of pain sensation (morphine analgesia; 30'): 83.5 ± 10%
percentage variation of latency of pain sensation (morphine analgesia; 45'): 89.8 ± 8%
percentage variation of latency of pain sensation (morphine analgesia; 60'): 78.4 ± 13%
percentage variation of latency of pain sensation (morphine analgesia; 90'): 52.2 ± 22%
M (10-90) ± SE, mean percentage variation of latency (morphine analgesia): 64.0 ± 25%
Power ratio with respect to morphine alone (morphine analgesia): 2.15
ED50 (concentration antagonising 50% of contracting effect of CCK-8) [1]: > 300 µg/mL

O=C(NC(CCC(=O)N1CCCCC1)C(=O)O)c1ccc(Br)cc1 [Compound D-7]
percentage variation of latency of pain sensation (morphine analgesia; 10'): 31.8 ± 19.0%
percentage variation of latency of pain sensation (morphine analgesia; 20'): 48.0 ± 16.0%
percentage variation of latency of pain sensation (morphine analgesia; 30'): 70.5 ± 15.0%
percentage variation of latency of pain sensation (morphine analgesia; 45'): 73.7 ± 13.0%
percentage variation of latency of pain sensation (morphine analgesia; 60'): 88.6%
percentage variation of latency of pain sensation (morphine analgesia; 90'): 32.4 ± 19.0%
M (10-90) ± SE, mean percentage variation of latency (morphine analgesia): 57.5 ± 23.5%
Power ratio with respect to morphine alone (morphine analgesia): 1.93
ED50 (concentration antagonising 50% of contracting effect of CCK-8) [1]: > 200 µg/mL

CCCN(CCC)C(=O)C(CCC(=O)O)NC(=O)c1ccc(F)cc1 (stereo not drawn) [Compound C-12]
percentage variation of latency of pain sensation (morphine analgesia; 10'): 54.4 ± 16.7%
percentage variation of latency of pain sensation (morphine analgesia; 20'): 76.3%
percentage variation of latency of pain sensation (morphine analgesia; 30'): 61.6 ± 16.0%
percentage variation of latency of pain sensation (morphine analgesia; 45'): 63.9 ± 20.0%
percentage variation of latency of pain sensation (morphine analgesia; 60'): 65.2 ± 17.0%
percentage variation of latency of pain sensation (morphine analgesia; 90'): 11.6 ± 14.0%
M (10-90) ± SE, mean percentage variation of latency (morphine analgesia): 55.5%
Power ratio with respect to morphine alone (morphine analgesia): 1.86
ED50 (concentration antagonising 50% of contracting effect of CCK-8) [1]: 64.7 µg/mL

CCCCN(CCCC)C(=O)C(CCC(=O)O)NC(=O)c1cc(Cl)cc(Cl)c1 (stereo not drawn) [Compound C-9]
percentage variation of latency of pain sensation (morphine analgesia; 10'): 67.6 ± 11.0%
percentage variation of latency of pain sensation (morphine analgesia; 20'): 65.8%
percentage variation of latency of pain sensation (morphine analgesia; 30'): 71.9 ± 17.5%
percentage variation of latency of pain sensation (morphine analgesia; 45'): 59.1 ± 20.0%
percentage variation of latency of pain sensation (morphine analgesia; 60'): 52.1 ± 22.0%
percentage variation of latency of pain sensation (morphine analgesia; 90'): 40.4 ± 18.0%
M (10-90) ± SE, mean percentage variation of latency (morphine analgesia): 59.5 ± 11.6%
Power ratio with respect to morphine alone (morphine analgesia): 2.00
ED50 (concentration antagonising 50% of contracting effect of CCK-8) [1]: 7.40 µg/mL

CCCN(CCC)C(=O)C(CCC(=O)O)NC(=O)c1ccccc1I (stereo not drawn) [Compound C-17]
percentage variation of latency of pain sensation (morphine analgesia; 10'): 18.9%
percentage variation of latency of pain sensation (morphine analgesia; 20'): 37.0 ± 12.0%
percentage variation of latency of pain sensation (morphine analgesia; 30'): 45.8 ± 18.0%
percentage variation of latency of pain sensation (morphine analgesia; 45'): 41.0 ± 17.0%
percentage variation of latency of pain sensation (morphine analgesia; 60'): 39.3 ± 20.0%
percentage variation of latency of pain sensation (morphine analgesia; 90'): 31.2 ± 18.0%
M (10-90) ± SE, mean percentage variation of latency (morphine analgesia): 35.5 ± 9.5%
Power ratio with respect to morphine alone (morphine analgesia): 1.19
ED50 (concentration antagonising 50% of contracting effect of CCK-8) [1]: > 200 µg/mL

CCCN(CCC)C(=O)C(CCC(=O)O)NC(=O)c1cc(F)cc(F)c1 (stereo not drawn) [Compound C-13]
percentage variation of latency of pain sensation (morphine analgesia; 10'): 24.6 ± 8.9%
percentage variation of latency of pain sensation (morphine analgesia; 20'): 70.0 ± 18.5%
percentage variation of latency of pain sensation (morphine analgesia; 30'): 75.5 ± 15.0%
percentage variation of latency of pain sensation (morphine analgesia; 45'): 56.6%
percentage variation of latency of pain sensation (morphine analgesia; 60'): 62.3 ± 17.3%
percentage variation of latency of pain sensation (morphine analgesia; 90'): 59.2 ± 25.1%
M (10-90) ± SE, mean percentage variation of latency (morphine analgesia): 58.0 ± 18.0%
Power ratio with respect to morphine alone (morphine analgesia): 1.95
ED50 (concentration antagonising 50% of contracting effect of CCK-8) [1]: > 200 µg/mL

CCCCNC(=O)C(CCC(=O)O)NC(=O)c1ccc(C)c(C)c1 (stereo not drawn) [Compound C-42]
percentage variation of latency of pain sensation (morphine analgesia; 10'): 49.0 ± 31%
percentage variation of latency of pain sensation (morphine analgesia; 20'): 65.9 ± 24%
percentage variation of latency of pain sensation (morphine analgesia; 30'): 80.1 ± 9%
percentage variation of latency of pain sensation (morphine analgesia; 45'): 59.1 ± 20%
percentage variation of latency of pain sensation (morphine analgesia; 60'): 33.5 ± 20%
percentage variation of latency of pain sensation (morphine analgesia; 90'): 61.4 ± 12%
M (10-90) ± SE, mean percentage variation of latency (morphine analgesia): 58.2 ± 16%
Power ratio with respect to morphine alone (morphine analgesia): 1.95
ED50 (concentration antagonising 50% of contracting effect of CCK-8) [1]: 50.1 µg/mL

CCCCN(CCCC)C(=O)C(CCC(=O)O)NC(=O)c1ccc(C)c(C)c1 (stereo not drawn) [Compound C-54]
percentage variation of latency of pain sensation (morphine analgesia; 10'): 77.0 ± 10%
percentage variation of latency of pain sensation (morphine analgesia; 20'): 89.1 ± 11%
percentage variation of latency of pain sensation (morphine analgesia; 30'): 100 ± 0%
percentage variation of latency of pain sensation (morphine analgesia; 45'): 99.2 ± 0.8%
percentage variation of latency of pain sensation (morphine analgesia; 60'): 69.6 ± 16%
percentage variation of latency of pain sensation (morphine analgesia; 90'): 63.2 ± 19%
M (10-90) ± SE, mean percentage variation of latency (morphine analgesia): 83.0 ± 15%
Power ratio with respect to morphine alone (morphine analgesia): 2.78
ED50 (concentration antagonising 50% of contracting effect of CCK-8) [1]: 1.2 µg/mL
